The values that follow come from patent publication US9840501B2, “Morpholin-pyridine derivatives” (Hoffmann-La Roche Inc., priority 2014, dated 2017).

In one assay the target is mouse TAAR1 (Mus musculus (Mouse), UniProt Q923Y8). Put plainly: Radioligand binding assay on mouse TAAR1. The following applies: mouse TAAR1, membranes of stably transfected HEK-293 cells; first value of the pair; read-out: Ki (μM) mouse/rat: mouse. The method, boiled down: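 Membranes from HEK293 cells stably expressing mouse TAAR1, in 20 mM HEPES-NaOH pH 7.4 with 0.1 mM EDTA, incubated 1 h at 4 °C with ^3[H]-(S)-4-[(ethyl-phenyl-amino)-methyl]-4,5-dihydro-oxazol-2-ylamine and compounds (10 pM to 10 μM, duplicates). Nonspecific binding with 10 μM unlabeled ligand; bound radioactivity counted after filtration.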

The target of the next assay is rat TAAR1 (Rattus norvegicus (Rat), UniProt Q923Y9). Put plainly: Radioligand binding assay on rat TAAR1. The following applies: rat TAAR1, membranes of stably transfected HEK-293 cells; second value of the pair; read-out: Ki (μM) mouse/rat: rat. Summed up:
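Membranes from HEK293 cells stably expressing rat TAAR1, in 20 mM HEPES-NaOH pH 7.4; displacement of 3[H]-(S)-4-[(ethyl-phenyl-amino)-methyl]-4,5-dihydro-oxazol-2-ylamine, nonspecific binding with 10 μM unlabeled ligand. Compounds 10 pM to 10 μM in duplicate, 1 h at 4 °C, filtration and scintillation counting.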

Chain of rat TAAR1 (Q923Y9 whole entry): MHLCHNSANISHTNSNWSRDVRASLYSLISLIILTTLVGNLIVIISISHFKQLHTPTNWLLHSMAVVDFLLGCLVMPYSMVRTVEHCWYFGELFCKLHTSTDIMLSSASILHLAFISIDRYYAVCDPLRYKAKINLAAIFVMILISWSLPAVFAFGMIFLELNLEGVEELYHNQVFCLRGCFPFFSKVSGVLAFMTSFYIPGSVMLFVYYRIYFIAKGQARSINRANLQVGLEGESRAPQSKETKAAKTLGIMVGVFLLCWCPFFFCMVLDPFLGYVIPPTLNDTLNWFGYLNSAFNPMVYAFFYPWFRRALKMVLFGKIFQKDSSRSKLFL
Chain of mouse TAAR1 (Q923Y8 whole entry): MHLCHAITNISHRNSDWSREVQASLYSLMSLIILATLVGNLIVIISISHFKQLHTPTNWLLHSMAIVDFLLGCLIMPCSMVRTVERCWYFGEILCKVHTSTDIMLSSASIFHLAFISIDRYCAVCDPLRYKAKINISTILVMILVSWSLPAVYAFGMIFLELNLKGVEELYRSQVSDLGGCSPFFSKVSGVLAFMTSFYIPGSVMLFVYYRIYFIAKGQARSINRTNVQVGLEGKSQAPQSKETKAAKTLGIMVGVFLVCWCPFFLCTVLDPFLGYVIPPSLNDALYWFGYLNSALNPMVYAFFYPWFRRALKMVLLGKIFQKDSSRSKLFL

With `CC(C)c1cc(C(=O)Nc2ccc([C@H]3CNCCO3)nc2)[nH]n1` [Example 58, 3-Isopropyl-N-[6-[(2R)-morpholin-2-yl]-3-pyridyl]-1H-pyrazole-5-carboxamide], the figures for the Ki on mouse TAAR1 and at rat TAAR1 were 0.0373 µM and 0.685 µM, respectively.
Take `O=C(Nc1ccc([C@H]2CNCCO2)nc1)c1ccc(Cl)cc1` [Example 51, 4-Chloro-N-[6-[(2R)-morpholin-2-yl]-3-pyridyl]benzamide]: the Ki was 0.0039 µM at mouse TAAR1 and 0.212 µM at rat TAAR1.
Turning to `O=C(Nc1cnc(C2CNCCO2)nc1)Nc1cccc(Cl)c1` (racemic) [Example 73, (RS)-1-(3-Chlorophenyl)-3-(2-morpholin-2-ylpyrimidin-5-yl)urea], the Ki was found to be 0.0059 µM at mouse TAAR1 and 1.96 µM on rat TAAR1.
Consider `CCc1n[nH]c(C(=O)Nc2ccc([C@@H]3CNCCO3)nc2)c1Br` [Example 78, 4-Bromo-3-ethyl-N-[6-[(2S)-morpholin-2-yl]-3-pyridyl]-1H-pyrazole-5-carboxamide], for which the Ki at mouse TAAR1 stood at 0.0056 µM; on rat TAAR1, 0.041 µM.
Regarding `O=C(Nc1ccc([C@@H]2CNCCO2)nc1)c1[nH]nc(C2CC2)c1Br` [Example 81, 4-Bromo-3-cyclopropyl-N-[6-[(2S)-morpholin-2-yl]-3-pyridyl]-1H-pyrazole-5-carboxamide], the Ki is 0.006 µM on mouse TAAR1 and 0.0152 µM at rat TAAR1.
Consider `FC(F)(F)c1ccc(Nc2ccc([C@H]3CNCCO3)nc2)nc1` [Example 49, N-[6-[(2R)-Morpholin-2-yl]-3-pyridyl]-5-(trifluoromethyl)pyridin-2-amine], for which the Ki is 0.0052 µM on mouse TAAR1 and 0.066 µM at rat TAAR1.
